Experimental findings from PubChem BioAssay AID1996 are described below.

In brackets after ≈: the same amount, converted by molar mass.

The conditions of this data set: buffer; pH 7.4; 200.0 µM.
Regarding `CCCCNC(=O)C(=O)NCCCn1ccnc1`, the kinetic solubility is over 37.8 µg/mL.
For the compound `COc1ccc(NC(=O)Nc2cccc3ccccc23)c(OC)c1`, the solubility (kinetic) was found to be 0.5 µg/mL (≈ 1.55 µM).
For `COc1cc(N2CCCC2)c(OC)cc1C=O`, the kinetic solubility was over 35.3 µg/mL.
`CCOC(=O)c1ccc2c(c1)nc(-c1ccccn1)n2CC` showed a solubility (kinetic) of 11.4 µg/mL (≈ 38.6 µM).
In the case of `Cc1ccc(C(C)NC(=O)c2cccs2)cc1C` (stereo unspecified) it was 5.7 µg/mL (≈ 22 µM); in that of `COc1ccc(NC(=O)CCn2cc(C)c3ccccc32)cc1`, 4.4 µg/mL (≈ 14.3 µM); in that of `CCN(CC)C(=O)Cn1cc(SCC(=O)NC)c2ccccc21`, 46.5 µg/mL (≈ 139 µM).
In the case of `Nc1cccc(S(=O)(=O)Nc2ccc(Br)cc2)c1` it was over 49.1 µg/mL; in that of `N#Cc1cccnc1N1CCN(C(=O)c2cccs2)CC1`, over 44.8 µg/mL; in that of `COc1ccc2cc(S(=O)(=O)Nc3ccccn3)ccc2c1`, 10 µg/mL (≈ 31.8 µM).
In the case of `CCNC(=S)N1CCC(C(=O)c2ccc3c(c2)OCCO3)CC1` it was 44.8 µg/mL (≈ 134 µM); in that of `Cn1cccc1C(=O)OCC(=O)NC1CCS(=O)(=O)C1` (stereo unspecified), over 45 µg/mL.
Take `CCOc1ccccc1NC(=O)c1ccccc1-c1ccccc1`: the kinetic solubility was determined as 8.5 µg/mL (≈ 26.8 µM).
In turn, `Cc1cc(NC(=O)COc2c(C)cccc2C)no1` showed a solubility (kinetic) of 6.9 µg/mL (≈ 26.5 µM).
On to `COc1ccccc1NC(=S)NC12CN3CN(CN(C3)C1)C2`, for which the kinetic solubility came to 43.3 µg/mL (≈ 136 µM).
As for `COc1ccc(N(CC2CO2)S(=O)(=O)c2ccc(C)cc2)cc1` (stereo unspecified), the figure is 49 µg/mL (≈ 147 µM).
In the case of `Cc1nc2oc3ccc(Cl)cc3c(=O)c2cc1C(=O)O` it was over 43.5 µg/mL; in that of `[Br-].c1ccc(C[n+]2ccc3ccccc3c2)cc1`, 43.9 µg/mL; in that of `Cc1ccc(C)c(OCCC(=O)Nc2cc(S(=O)(=O)N3CCCCC3)ccc2C)c1`, 2.4 µg/mL (≈ 5.57 µM).
As for `CCSc1nc2sc3c(c2c(=O)n1-c1ccccc1C)CCN(C)C3`, the figure is 53.7 µg/mL (≈ 145 µM); as for `COc1ccccc1NS(=O)(=O)c1ccc2c(c1)OCCO2`, 48 µg/mL (≈ 149 µM); as for `Cn1cc(C(=O)OCC(=O)NC2(C#N)CCCC2)c2ccccc21`, over 48.8 µg/mL.
Turning to `COc1ccc(OC)c(-n2c(C)cc(C=O)c2C)c1`, the solubility (kinetic) was over 38.9 µg/mL.
In the case of `O=C(c1ccncc1)N1CCc2ccccc2C1` it was over 35.7 µg/mL; in that of `Cn1cc(C(=O)N2CCOCC2)c2ccccc21`, over 36.6 µg/mL; in that of `O=C(CNS(=O)(=O)c1ccc(F)c(Cl)c1)N1CCCC1`, 44.1 µg/mL (≈ 137 µM).
As for `COC(=O)c1cc(=O)n(-c2c(Cl)cc(C(F)(F)F)cc2Cl)[nH]1`, the figure is over 53.3 µg/mL; as for `COc1ccc(C2(CNC(=O)c3cccs3)CCOCC2)cc1`, 48.6 µg/mL (≈ 147 µM).
As for `O=C(N/N=C/c1cccnc1)c1cccc(Cl)c1`, the figure is over 39 µg/mL; as for `CC(C)c1cccc(C(C)C)c1OCCCCCN1CCOCC1`, 33.4 µg/mL (≈ 100 µM).
For `NC(=O)CC(CC(=O)OCc1ccccc1)c1ccccc1` (stereo unspecified), the solubility (kinetic) was 38 µg/mL (≈ 128 µM).
As for `CN(C(=O)C1CCC(=O)N(C2CC2)C1)C1CCCCC1` (stereo unspecified), the figure is over 41.8 µg/mL; as for `COCCNS(=O)(=O)c1cc(OC)ccc1OC`, over 41.3 µg/mL; as for `O=C(CN1CCN(c2ccc(F)cc2)CC1)NCc1ccc(Cl)cc1`, 51.2 µg/mL (≈ 141 µM).
As for `O=C(COC(=O)/C=C/c1cccc(Br)c1)NCc1cccs1`, the figure is 5 µg/mL (≈ 13.1 µM); as for `COc1ccc(/C=C/C(=O)N2CCOCC2)cc1OC`, over 41.6 µg/mL.
For the compound `Cc1ccccc1Nc1ncnc(N)n1`, the kinetic solubility was over 30.2 µg/mL.
In the case of `Cc1nc2ccc([N+](=O)[O-])cc2c(=O)n1Cc1ccc(Cl)cc1` it was 0.6 µg/mL (≈ 1.82 µM).
As for `N#Cc1cnc(NOCc2ccc(Cl)cc2)nc1`, the figure is 7.4 µg/mL (≈ 28.4 µM); as for `OC(CN1CCc2ccccc2C1)c1ccccc1` (stereo unspecified), over 38 µg/mL; as for `Cc1ccc2nc(-c3ccc(O)c(O)c3)cn2c1.Cl`, 22.7 µg/mL.
In the case of `CCOC(=O)C1CCN(S(=O)(=O)c2ccc(Cl)s2)CC1`, the kinetic solubility was 12.3 µg/mL (≈ 36.4 µM).
For the compound `O=C(NCC1CCCO1)c1cncc(Br)c1` (stereo unspecified), the solubility (kinetic) is over 42.8 µg/mL.
In the case of `Cc1noc(C)c1COC(=O)c1cc(S(=O)(=O)N2CCOCC2)ccc1Cl` it was 42.4 µg/mL (≈ 102 µM).
In the case of `CC(C)(C)N1C(=O)c2ccc(C(=O)Nc3cc(C(=O)O)cc(C(=O)O)c3)cc2C1=O` it was 51.5 µg/mL (≈ 125 µM); in that of `O=C(Cn1cncn1)N/N=C/c1ccccc1O`, over 36.8 µg/mL.
As for `Cc1ccc(OCC(=O)NC(C)c2ccccc2)cc1C` (stereo unspecified), the figure is over 42.5 µg/mL; as for `CCOC(=O)c1sc(=NC(=O)c2ccc(OC(C)C)cc2)n(C)c1C`, under 0.4 µg/mL.
Regarding `Cc1ccc2[nH]cc(CCNS(=O)(=O)c3ccc(F)cc3)c2c1`, the kinetic solubility came to 23 µg/mL (≈ 69.2 µM).
In the case of `O=C(Cn1c2ccc(F)cc2c2nc3n(c(=O)c21)CCS3)N1CCCC1` it was over 55.9 µg/mL; in that of `CC1CCCCC1NC(=S)NC(=O)c1cccs1` (stereo unspecified), 5.5 µg/mL (≈ 19.5 µM).

The solubility (kinetic) is solubility judged after dilution from a stock solution rather than from solid.
